Assays:
[1] = logP by HPLC (EEC Directive 79/831 Annex V. A8)
Plutella = Plutella test/synthetic feed; format: in vivo; details: Plutella larvae on treated synthetic feed; concentration and time not stated
Method: Plutella Test/Synthetic Feed [table] […] A stated amount of the preparation of active compound of the desired concentration is pipetted onto a standardized amount of synthetic feed. After the methanol has evaporated, a film box lid covered with about 100 Plutella eggs is placed onto each cavity. The freshly hatched larvae migrate onto the treated synthetic feed. After the desired period of time, the kill in % is determined. 100% means that all animals have been killed; 0% means that none of the animals have been killed.

SMILES: CON=C(C(=O)OC)c1ccccc1Oc1ncnc(Oc2cccc(F)c2)c1F [Example 1, Methyl 2-{2-[6-(3-fluorophenoxy)-5-fluoro-pyrimidin-4-yloxy]-phenyl}-2-methoxyiminoacetate]
- chromatographic logP [1]: 3.46

SMILES: CCSCc1ccccc1Oc1ncnc(Oc2ccccc2C(=NOC)C(=O)OC)c1F [Example 16]
- logP ([1]; HPLC, gradient method, acetonitrile/0.1% aqueous phosphoric acid): 3.97

SMILES: CON=C(C(=O)OC)c1ccccc1Oc1ncnc(Oc2cc(Cl)ccc2Cl)c1F [Example 10]
- activity (kill) (Plutella): good activity
